# Assay results as given in US8258081B2, “Use of C3 to C14 aliphatic aldehydes, ketones and primary and secondary C3 to C7 aliphatic alcohols to inhibit sprouting of potato tubers” (Washington State University Research Foundation, priority 2007, dated 2012).
# Tests used:
# potato tubers [1] = assay: Sprout inhibition by C5 to C7 alcohols, sprout fresh weight 21 days after treatment at 18° C.; assay type: in vivo; conditions: 24 h treatment
# Method: (§1) The objective of this study was to determine the metabolites of 3-nonen-2-one (3N2) and trans-2-nonenal (T2N), which are two examples of α,β-unsaturated aldehydes and ketones that inhibit sprouting in potatoes as described in U.S. Pat. No. 6,855,669. Potato tubers were treated with 3N2 or T2N (0.75 mmol/kg tuber) for 24 h in a closed chamber. The chemicals were volatilized from filter paper inside the chamber. The tubers were removed from the treatment chamber and placed at 9° C. for up to 28 days.
# The objective of this study was to determine the extent to which 1-heptanol, 1-hexanol, 2-heptanol, trans-2-hepten-1-ol, trans-2-hexen-1-ol and 1-pentanol (C5 to C7 alcohols) inhibit sprouting of potato tubers. Tubers were treated separately with 0.25, 0.5, 0.75 or 1 mmol/kg of each alcohol for 24 h as described in Example 1. The treated tubers were placed at 18° C. and sprout fresh weights were measured 21 days after treatment. […] C7 alcohols inhibited sprouting by about 50 to about 100%, depending on the precise treatment.
# potato tubers [2] = assay: Sprout inhibition by T2N and its metabolites, sprout fresh weight 21 days after treatment at 19° C.; assay type: in vivo; conditions: for % Inhibition of sprouting: 24 h treatment
# Method: as §1
# The objective of this study was to determine the extent to which nonanal, 1-nonanol, and trans-2-nonene-1-ol (metabolites of T2N) inhibit sprouting of potato tubers relative to T2N. Tubers were treated separately with 0.25, 0.5 and 0.75 mmol/kg of T2N, nonanal, 1-nonanol, and trans-2-nonene-1-ol for 24 h as described in Example 1. The treated tubers were placed at 19° C. and sprout fresh weights were measured 21 days after treatment. T2N inhibited sprouting (100%) at all concentrations. Nonanal and 1-nonanol inhibited sprouting by 13 to 51%, depending on the compound and the concentration that was used.
# Premier Russet tubers = assay: Long term sprout inhibition during storage at 9° C.; assay type: in vivo, potato; conditions: 0.75 mmol/kg; for duration of sprout suppression: re-applied between second and third month
# Method: FIG. 4. Effect of trans-2-hexen-1-ol, 2-heptanol, decanal and 3-decanone on sprouting in Premier Russet tubers during long term storage at 9° C.
# The objective of this study was to determine the extent to which trans-2-hexen-1-ol, 2-heptanol, decanal, and 3-decanone inhibit sprouting during extended storage under typical commercial storage conditions. Premier Russet tubers were treated separately with 0.75 mmol/kg of each compound in 190 L plastic barrels at room temperature. Chemicals were volatilized from filter paper within the barrels which were sealed for 24 hours during application. Tubers were then stored at 9° C. and sampled monthly to determine the amount of sprouting on a per tuber basis. All treatments were re-applied between the second and third month of storage. […] 2-heptanol and decanal suppressed sprouting for 114 days (about 4 months of control). 3-decanone suppressed sprouting for 83 days.
# potato tubers [3] = assay: Residues and metabolites of 3N2 and T2N in treated potato tubers; conditions: for persistence of metabolite residue: tubers treated with 0.75 mmol/kg parent compound, 9° C., 28 days; for metabolites formed in tubers: tubers treated with 0.75 mmol/kg for 24 h, stored at 9° C. up to 28 days
# Method: FIG. 1. Levels of 3-nonen-2-one, 2-nonanone, and 2-nonanol in tubers initially treated with 0.75 mmol/kg 3-nonen-2-one and stored at 9° C. Content of residues in the outer 20 mm of tuber.
# FIG. 2. Levels of trans-2-nonenal, nonanal, trans-2-nonen-1-ol and 1-nonanol in tubers initially treated with 0.75 mmol/kg trans-2-nonenal and stored at 9° C. Content of residues in the outer 20 mm of tuber.
# as §1
# Samples were taken for analysis of residues and metabolite identification over the 28-day storage period.
# potato tubers [4] = assay: Sprout inhibition by 3N2, 2-nonanone and 2-nonanol, sprout fresh weight 21 days after treatment at 18° C.; assay type: in vivo; conditions: for % Inhibition of sprouting: 24 h treatment; for inhibition of sprout growth relative to non-treated controls: 0.5 and 0.75 mmol/kg
# Method: as §1
# Tubers were treated separately as described in Example 1 with 0, 0.25, 0.5, and 0.75 mmol/kg of 3N2,2-nonanone, and 2-nonanol. The treated tubers were placed at 18° C. and sprout fresh weights were measured 21 days after treatment.
# Russet Burbank tubers = assay: Sprout inhibition by mixtures of 3N2 and 2-nonanone, sprout fresh weight 21 days after treatment at 22° C.; assay type: in vivo, potato
# Method: FIG. 3. Effects of 3-nonen-2-one (3N2) in various combinations with 2-nonanone on sprouting of Russet Burbank tubers. The compounds were applied as described in Example 1. Tubers were treated for 24 h, removed from treatment chambers, and placed at 22° C. to sprout for 3 weeks. Sprout fresh weight is expressed as a percentage of control (non-treated), which were 100% sprouted.
# as §1
# The objective of this study was to determine the efficacy of mixtures of 3N2 and its metabolite, 2-nonanone, on sprout inhibition. Tubers were treated as described in Example 1 with 0 to 0.75 mmol/kg of 3N2 combined factorially with 0 to 0.75 mmol/kg of 2-nonanone. The treated tubers were placed at 22° C. and sprout fresh weights were measured 21 days after treatment. […]
# potatoes = conditions: with two applications, table-stock and processing potatoes; cited from earlier work
compound,measurement,setting,value
CCCCCCCO [1-heptanol],% Inhibition of sprouting,potato tubers [1]; 0.25 mmol/kg tubers,51.8%
same,% Inhibition of sprouting,potato tubers [1]; 0.50 mmol/kg tubers,94.0%
same,% Inhibition of sprouting,potato tubers [1]; 0.75 mmol/kg tubers,95.7%
CCCCCCO [1-hexanol],% Inhibition of sprouting,potato tubers [1]; 0.25 mmol/kg tubers,36.6%
same,% Inhibition of sprouting,potato tubers [1]; 0.50 mmol/kg tubers,61.3%
same,% Inhibition of sprouting,potato tubers [1]; 0.75 mmol/kg tubers,71.9%
CCCCCCCCCO [1-nonanol],% Inhibition of sprouting,potato tubers [2]; 0.25 mmol/kg tubers,28.3%
same,% Inhibition of sprouting,potato tubers [2]; 0.5 mmol/kg tubers,24.5%
same,% Inhibition of sprouting,potato tubers [2]; 0.75 mmol/kg tubers,50.9%
CCCCCO [1-pentanol],% Inhibition of sprouting,potato tubers [1]; 0.25 mmol/kg tubers,7.5%
same,% Inhibition of sprouting,potato tubers [1]; 0.50 mmol/kg tubers,32.5%
same,% Inhibition of sprouting,potato tubers [1]; 0.75 mmol/kg tubers,45.8%
CCCCCC(C)O (stereo not drawn) [2-heptanol],% Inhibition of sprouting,potato tubers [1]; 0.25 mmol/kg tubers,49.4%
same,% Inhibition of sprouting,potato tubers [1]; 0.50 mmol/kg tubers,89.0%
same,% Inhibition of sprouting,potato tubers [1]; 0.75 mmol/kg tubers,97.7%
same,duration of sprout suppression,Premier Russet tubers,114 days
CCCCCCCC(C)O (stereo not drawn) [2-nonanol],persistence of metabolite residue,potato tubers [3],most persistent
same,% Inhibition of sprouting,potato tubers [4]; 0.25 mmol/kg tubers,65.1%
same,% Inhibition of sprouting,potato tubers [4]; 0.5 mmol/kg tubers,79.8%
same,% Inhibition of sprouting,potato tubers [4]; 0.75 mmol/kg tubers,72.9%
CCCCCCCC(C)=O [2-nonanone],% Inhibition of sprouting,potato tubers [4]; 0.25 mmol/kg tubers,77.22%
same,% Inhibition of sprouting,potato tubers [4]; 0.5 mmol/kg tubers,97.9%
same,% Inhibition of sprouting,potato tubers [4]; 0.75 mmol/kg tubers,98.8%
same,inhibition of sprout growth relative to non-treated controls,potato tubers [4],substantially inhibited sprout growth
same,Sprout growth (fresh weight) as % of non-treated tubers,Russet Burbank tubers; average of 0.5 and 0.75 mmol/kg 2-nonanone,58%
CCCCCCCC(=O)CC [3-decanone],duration of sprout suppression,Premier Russet tubers,83 days
"CCCCCC=CC(C)=O [3-nonen-2-one, reference compound]",metabolites formed in tubers,potato tubers [3],2-nonanone and 2-nonanol
same,% Inhibition of sprouting,potato tubers [4]; 0.25 mmol/kg tubers,99.6%
same,% Inhibition of sprouting,potato tubers [4]; 0.5 mmol/kg tubers,99.9%
same,% Inhibition of sprouting,potato tubers [4]; 0.75 mmol/kg tubers,99.9%
same,inhibition of sprout growth relative to non-treated controls,potato tubers [4],substantially inhibited sprout growth
same,Sprout growth (fresh weight) as % of non-treated tubers,Russet Burbank tubers; 0.75 mmol/kg 3N2 applied alone,9%
"CC(C)OC(=O)Nc1cccc(Cl)c1 [CIPC, chlorpropham]",duration of sprout inhibition / extended storage life,potatoes,up to 1 year
CCCCCCCCCC=O [decanal],duration of sprout suppression,Premier Russet tubers,114 days
CCCCCCCCC=O [nonanal],% Inhibition of sprouting,potato tubers [2]; 0.25 mmol/kg tubers,13.2%
same,% Inhibition of sprouting,potato tubers [2]; 0.5 mmol/kg tubers,32.1%
same,% Inhibition of sprouting,potato tubers [2]; 0.75 mmol/kg tubers,17.0%
CCCC/C=C/CO [trans-2-hepten-1-ol],% Inhibition of sprouting,potato tubers [1]; 0.25 mmol/kg tubers,91.7%
same,% Inhibition of sprouting,potato tubers [1]; 0.50 mmol/kg tubers,98.7%
same,% Inhibition of sprouting,potato tubers [1]; 0.75 mmol/kg tubers,99.4%
CCC/C=C/CO [trans-2-hexen-1-ol],% Inhibition of sprouting,potato tubers [1]; 0.25 mmol/kg tubers,96%
same,% Inhibition of sprouting,potato tubers [1]; 0.50 mmol/kg tubers,100.0%
same,% Inhibition of sprouting,potato tubers [1]; 0.75 mmol/kg tubers,100.0%
same,damage to the tuber periderm,Premier Russet tubers; after 83 days,excessive damage to the periderm
same,sprout control,Premier Russet tubers; up to 83 days,sprouts were effectively controlled up to this point
CCCCCC/C=C/CO [trans-2-nonen-1-ol],persistence of metabolite residue,potato tubers [3],most persistent metabolite
same,% Inhibition of sprouting,potato tubers [2]; 0.25 mmol/kg tubers,8.9%
same,% Inhibition of sprouting,potato tubers [2]; 0.5 mmol/kg tubers,62.8%
same,% Inhibition of sprouting,potato tubers [2]; 0.75 mmol/kg tubers,31.6%
"CCCCCC/C=C/C=O [trans-2-nonenal, reference compound]",metabolites formed in tubers,potato tubers [3],"trans-2-nonen-1-ol, nonanal and 1-nonanol"
same,% Inhibition of sprouting,potato tubers [2]; 0.25 mmol/kg tubers,100%
same,% Inhibition of sprouting,potato tubers [2]; 0.5 mmol/kg tubers,100%
same,% Inhibition of sprouting,potato tubers [2]; 0.75 mmol/kg tubers,100%
same,inhibition of sprouting relative to untreated control,"potato tubers [2]; over all concentrations (0.25, 0.5 and 0.75 mmol/kg)",100%
